In article PMC10133546, “Simultaneous determination of multiple components in rat plasma by UHPLC-sMRM for pharmacokinetic studies after oral administration of Qingjin Yiqi Granules” (Frontiers in Pharmacology, 2023):

Experiments:
[1] = Stability of the working solution (4°C for 1 month); assay type: physicochemical
Method: (§1) The stability of analytes in plasma was evaluated by analyzing 4 QC samples (n = 6). The stability was included auto-sampler stability (keeping the sample in auto-sampler for 24 h), three times of freeze-thaw cycles stability (freezing cycle at −80°C, thawing cycle at room temperature), room temperature stability (storing samples at room temperature for 24 h), long-term stability (storing samples at −80°C for 1 month). […] Accompanying curve was established when testing the sample, calculate and compare the ratio of the actual measured concentration to the theoretical concentration, expressed in accuracy and RSD.

[2] = Stability of analytes in rat plasma (auto-sampler, freeze-thaw, room temperature, long-term); conditions: for Autosampler for 24 h Accuracy (%): autosampler 24 h; for Room temperature for 24 h Accuracy (%): room temperature 24 h; for Freeze thaw cycles Accuracy (%): three freeze-thaw cycles
Method: as §1

| Working solution Accuracy (%) ([1]; 12.5 ng/mL) | Compound | Working solution Accuracy (%) ([1]; 50 ng/mL) | Working solution Accuracy (%) ([1]; 100 ng/mL) | Working solution Accuracy (%) ([1]; 500 ng/mL) | Autosampler for 24 h Accuracy (%) ([2]; 50 ng/mL) | Room temperature for 24 h Accuracy (%) ([2]; 50 ng/mL) | Freeze thaw cycles Accuracy (%) ([2]; 50 ng/mL) | −80°C for 1month Accuracy (%) ([2]; 50 ng/mL, −80°C 1 month) | Autosampler for 24 h Accuracy (%) ([2]; 100 ng/mL) | Room temperature for 24 h Accuracy (%) ([2]; 100 ng/mL) | −80°C for 1month Accuracy (%) ([2]; 100 ng/mL, −80°C 1 month) | Autosampler for 24 h Accuracy (%) ([2]; 500 ng/mL) | Room temperature for 24 h Accuracy (%) ([2]; 500 ng/mL) | −80°C for 1month Accuracy (%) ([2]; 500 ng/mL, −80°C 1 month) | Freeze thaw cycles Accuracy (%) ([2]; 100 ng/mL) | Freeze thaw cycles Accuracy (%) ([2]; 500 ng/mL) | Autosampler for 24 h Accuracy (%) ([2]; 12.5 ng/mL) | Room temperature for 24 h Accuracy (%) ([2]; 12.5 ng/mL) | Freeze thaw cycles Accuracy (%) ([2]; 12.5 ng/mL) | −80°C for 1month Accuracy (%) ([2]; 12.5 ng/mL, −80°C 1 month) | other results |
| --- | --- | --- | --- | --- | --- | --- | --- | --- | --- | --- | --- | --- | --- | --- | --- | --- | --- | --- | --- | --- | --- |
|  | CC(C)(O[C@@H]1O[C@H](CO)[C@@H](O)[C@H](O)[C@H]1O)[C@@H]1CC[C@](O)(CO)[C@H]2CC(=O)[C@@](C)(O)[C@@H]2C1 [atractyloside A] | 88.5% | 104.0% | 97.2% | 107.0% | 97.6% | 84.6% | 89.7% | 94.4% | 104.0% | 96.2% | 103.0% | 91.2% | 92.2% |  |  |  |  |  |  | Working solution Accuracy (%) ([1]; 200 ng/mL): 87.0%; Autosampler for 24 h Accuracy (%) ([2]; 200 ng/mL): 91.5%; Room temperature for 24 h Accuracy (%) ([2]; 200 ng/mL): 89.9%; Freeze thaw cycles Accuracy (%) ([2]; 200 ng/mL): 97.0%; −80°C for 1month Accuracy (%) ([2]; 200 ng/mL, −80°C 1 month): 93.4% |
|  | O=C(O)[C@H]1O[C@@H](Oc2cc3oc(-c4ccc(O)cc4)cc(=O)c3c(O)c2O)[C@H](O)[C@@H](O)[C@@H]1O [scutellarin] | 97.2% | 108.0% | 100.0% |  | 91.2% |  | 92.2% | 109.0% | 101.0% | 101.0% | 101.0% | 105.0% | 103.0% | 111.0% | 112.0% |  |  |  |  | Working solution Accuracy (%) ([1]; 200 ng/mL): 99.4%; Autosampler for 24 h Accuracy (%) ([2]; 200 ng/mL): 94.7%; Room temperature for 24 h Accuracy (%) ([2]; 200 ng/mL): 90.6%; Freeze thaw cycles Accuracy (%) ([2]; 200 ng/mL): 85.4%; −80°C for 1month Accuracy (%) ([2]; 200 ng/mL, −80°C 1 month): 90.4% |
| 106.0% | C[C@@]12C[C@@]3(O)O[C@@H](O1)[C@]1(COC(=O)c4ccccc4)[C@H]3C[C@@]12O[C@@H]1O[C@H](CO)[C@@H](O)[C@H](O)[C@H]1O [paeoniflorin] |  |  | 93.2% | 97.6% | 106.0% | 94.1% | 96.4% | 111.0% | 86.8% | 95.2% | 92.0% | 92.2% | 95.3% | 93.4% | 93.1% | 86.8% | 106.0% | 97.6% | 97.6% |  |
|  | COc1c2ccoc2c(OC)c2oc(=O)ccc12 [isopimpinellin (IS)] |  |  |  |  |  |  |  |  |  |  |  |  |  |  |  |  |  |  |  | Working solution Accuracy (%) ([1]; concentration 100 ng/mL): 93.5%; Autosampler for 24 h Accuracy (%) ([2]; concentration 100 ng/mL): 98.6%; Room temperature for 24 h Accuracy (%) ([2]; concentration 100 ng/mL): 96.5%; Freeze thaw cycles Accuracy (%) ([2]; concentration 100 ng/mL): 88.2%; −80°C for 1month Accuracy (%) ([2]; −80°C for 1 month, concentration 100 ng/mL): 109.0% |
|  | COc1ccc(-c2oc3c(CC=C(C)C)c(O[C@@H]4O[C@H](CO)[C@@H](O)[C@H](O)[C@H]4O)cc(O)c3c(=O)c2O[C@@H]2O[C@@H](C)[C@H](O)[C@@H](O)[C@H]2O)cc1 [icariin (IS)] |  |  |  |  |  |  |  |  |  |  |  |  |  |  |  |  |  |  |  | Working solution Accuracy (%) ([1]; concentration 100 ng/mL): 94.8% |
| 100.0% | COc1c2c(cc3oc(CO)cc(=O)c13)O[C@H](C(C)(C)O)C2 [cimifugin] |  |  | 86.7% |  |  |  |  | 100.0% | 98.0% | 99.6% | 102.0% | 98.6% | 95.2% | 95.7% | 93.2% | 91.1% |  | 92.0% | 96.3% | Working solution Accuracy (%) ([1]; 1.56 ng/mL): 90.5%; Autosampler for 24 h Accuracy (%) ([2]; 1.56 ng/mL): 102.0%; Room temperature for 24 h Accuracy (%) ([2]; 1.56 ng/mL): 92.4%; Freeze thaw cycles Accuracy (%) ([2]; 1.56 ng/mL): 84.5%; −80°C for 1month Accuracy (%) ([2]; 1.56 ng/mL, −80°C 1 month): 83.9% |
| 91.6% | O.Oc1cc(O)c2c(c1)O[C@H](c1ccc(O)c(O)c1)[C@@H](O)C2 [catechin] | 106.0% | 97.4% | 100.0% |  |  |  |  |  |  |  |  |  |  |  |  |  |  |  |  |  |
|  | O=c1cc(-c2ccccc2)oc2cc(O)c(O)c(O)c12 [baicalein] |  |  |  | 92.3% | 85.5% |  | 90.6% | 92.4% |  | 95.5% | 93.2% | 91.0% | 104.0% | 98.2% | 94.0% | 97.0% | 91.4% | 97.4% | 99.7% |  |

| Compound | Working solution Accuracy (%) ([1]; 12.5 ng/mL) | Working solution Accuracy (%) ([1]; 50 ng/mL) | Working solution Accuracy (%) ([1]; 100 ng/mL) | Working solution Accuracy (%) ([1]; 500 ng/mL) | Autosampler for 24 h Accuracy (%) ([2]; 50 ng/mL) | Room temperature for 24 h Accuracy (%) ([2]; 50 ng/mL) | Freeze thaw cycles Accuracy (%) ([2]; 50 ng/mL) | −80°C for 1month Accuracy (%) ([2]; 50 ng/mL, −80°C 1 month) | Autosampler for 24 h Accuracy (%) ([2]; 100 ng/mL) | Room temperature for 24 h Accuracy (%) ([2]; 100 ng/mL) | −80°C for 1month Accuracy (%) ([2]; 100 ng/mL, −80°C 1 month) | Autosampler for 24 h Accuracy (%) ([2]; 500 ng/mL) | Room temperature for 24 h Accuracy (%) ([2]; 500 ng/mL) | −80°C for 1month Accuracy (%) ([2]; 500 ng/mL, −80°C 1 month) | Freeze thaw cycles Accuracy (%) ([2]; 100 ng/mL) | Freeze thaw cycles Accuracy (%) ([2]; 500 ng/mL) | Autosampler for 24 h Accuracy (%) ([2]; 12.5 ng/mL) | Room temperature for 24 h Accuracy (%) ([2]; 12.5 ng/mL) | Freeze thaw cycles Accuracy (%) ([2]; 12.5 ng/mL) | −80°C for 1month Accuracy (%) ([2]; 12.5 ng/mL, −80°C 1 month) | other results |
| --- | --- | --- | --- | --- | --- | --- | --- | --- | --- | --- | --- | --- | --- | --- | --- | --- | --- | --- | --- | --- | --- |
| O=c1cc(-c2ccc(O)cc2)oc2c([C@@H]3O[C@H](CO)[C@@H](O)[C@H](O)[C@H]3O)c(O)cc(O)c12 [vitexin] | 88.3% |  | 89.9% | 106.0% |  |  |  |  | 93.2% | 88.3% | 93.2% | 92.4% | 107.0% | 92.6% | 85.5% | 108.0% | 93.5% | 105.0% | 92.0% | 106.0% | Working solution Accuracy (%) ([1]; 1.56 ng/mL): 95.6%; Autosampler for 24 h Accuracy (%) ([2]; 1.56 ng/mL): 95.0%; Room temperature for 24 h Accuracy (%) ([2]; 1.56 ng/mL): 92.0%; Freeze thaw cycles Accuracy (%) ([2]; 1.56 ng/mL): 103.0%; −80°C for 1month Accuracy (%) ([2]; 1.56 ng/mL, −80°C 1 month): 90.4% |
| CC(C)=CCC[C@](C)(O)[C@H]1CC[C@]2(C)[C@@H]1[C@H](O)C[C@@H]1[C@@]3(C)CC[C@H](O)C(C)(C)[C@@H]3[C@@H](O[C@@H]3O[C@H](CO)[C@@H](O)[C@H](O)[C@H]3O[C@@H]3O[C@H](CO)[C@@H](O)[C@H](O)[C@H]3O)C[C@]12C [ginsenoside Rf] | 91.9% | 94.9% | 110.0% | 102.0% | 98.9% |  | 88.0% | 89.6% | 88.2% | 96.8% |  |  | 113.0% | 112.0% | 89.7% |  | 112.0% | 96.1% | 97.2% | 97.1% |  |
